Test results as given in PMC6222789, “CF3-Substituted Mollugin 2-(4-Morpholinyl)-ethyl ester as a Potential Anti-inflammatory Agent with Improved Aqueous Solubility and Metabolic Stability” (Molecules : A Journal of Synthetic Chemistry and Natural …, 2018).

How the values were obtained:
CYP2C19 = target: T1, CYP2C19 (Homo sapiens, UniProt P33261); assay: CYP inhibition assay, CYP2C19; format: in vitro ADME; conditions: for CYP Inhibition (% of Control) 2C19: 10 μM, CYP activity in presence of inhibitor as % of control, human liver microsomes
T1 construct: from tissue; host or cells: human liver microsomes
Experimental: (§1) All incubations were performed in duplicate, and the mean values were used for analysis. The assays of phenacetin O-deethylase, tolbutamide 4-hydroxylase, S-mephenytoin 4-hydroxylase, dextromethorphan O-demethylase and midazolam 1′-hydroxylase activities were determined as probe activities for CYP1A2, CYP2C9, CYP2C19, CYP2D6 and CYP3A, respectively, using cocktail incubation and tandem mass spectrometry. Briefly, incubation reaction was performed with 0.25 mg/mL human liver microsomes in a final incubation volume of 100 μL. The incubation medium contained 100 mM phosphate buffer (pH 7.4) with probe substrates. The incubation mixture containing various inhibitors (10 μM) was pre-incubated for 5 min. After pre-incubation, an NADPH regenerating system was added. After incubation at 37 °C for 15 min, the reaction was stopped by placing the incubation tubes on ice and adding 40 μL of ice-cold acetonitrile. The incubation mixtures were then centrifuged at 10,000× g for 5 min at 4 °C. Aliquots of the supernatant were injected onto an LC-MS/MS system. The CYP-mediated activities in the presence of inhibitors were expressed as percentages of the corresponding control values.

Serum Amyloid A (SAA) = assay: Serum SAA level in DSS-induced colitis mouse model (ELISA); format: in vivo; conditions: for serum SAA level (mSS assay): 4% DSS-induced mouse model, compound 10 μM, ELISA; for effect on serum SAA level: murine model of DSS-induced colitis
Experimental: The level of Serum Amyloid A (SAA) was measured using a mouse SAA ELISA kit according to the manufacturer’s instructions (E-90SAA, Immunology Consultants Laboratory, Inc., Portland, OR, USA). All samples were assayed in duplicate. The concentrations of SAA were determined by comparison to serial dilutions of purified SAA calibrator.
Figure 2 Analysis of mouse serum amyloid A (SAA) level. Effect of 6d on the level of SAA in the 4% dextran sulfate sodium (DSS)-induced mouse model. The level of SAA in serum was determined by ELISA. The control mice received water + vehicle (water), and the treated groups received 4% DSS + vehicle or DSS with mesalazine (20 mM), 6d (10 μM), or 15c (10 μM). TEXT PRINTED IN THE PICTURE: vehecle: mSS assay (ng/ml): 252.08 | vehecle: mSS assay (ng/ml): 732.93 (4% DSS) | 2: mSS assay (ng/ml): 788.86 (4% DSS) | 6d: mSS assay (ng/ml): 295.77 (4% DSS) | 15c: mSS assay (ng/ml): 300.95 (4% DSS)

[1] = Metabolic stability, rat liver microsomes; format: in vitro ADME; conditions: 30 min, 1 μM
Experimental: (§2) Pooled human liver microsomes (150 donor) and dog, rat, mouse liver microsomes were obtained from BD Gentest Co. (Woburn, MA, USA). NADPH regeneration system was obtained from Promega. S-Mephenytoin, 4-hydroxymephenytoin, and 1’-hydroxymidazolam were purchased from Ultrafine Chemical Co. (Manchester, UK). All other chemicals and solvents were of the highest grade available. The metabolic stability assay was performed by incubation of human or selected animal liver microsomes (most often dog, rat and mouse), at 37 °C with a test compound at a final concentration of 1 μM, in the presence of 0.5 mg/mL microsomal protein and NADPH regeneration system, in a total volume of 100 μL of 100 mM phosphate buffer, pH 7.4. The incubation was started by the addition of NADPH regeneration system and terminated with 40 μL of ice-cold acetonitrile at 0 and 30 min. Precipitated proteins were removed by centrifugation at 10,000× g for 5 min at 4 °C. Aliquots of the supernatant were injected onto an LC-MS/MS system. Incubations terminated prior to the addition of NADPH regeneration system (time point 0 min) were used as standards, defined as 100%. Percent of the parent compound remaining was calculated by comparing peak area.

CYP3A4 = assay: CYP inhibition assay, CYP3A4; format: in vitro ADME, human; conditions: for CYP Inhibition (% of Control) 3A4: 10 μM, CYP activity in presence of inhibitor as % of control, human liver microsomes
Experimental: as §1

[2] = test system: IL-6-induced adhesion of U937 monocytic cells to HT-29 cells; assay: IL-6-induced colonic epithelial cell adhesion assay; format: cell-based, human; conditions: Homo sapiens, Epithelial cell, 10 uM; U937 adhesion to HT-29 cells, IL-6-induced
Experimental: Synthesized mollugin derivatives were subjected to the colonic epithelial cell adhesion assay, which mimics the initial stage of colon inflammation. The inhibition of TNF-α-induced or IL-6-induced adhesion of U937 monocytic cells to HT-29 cells in 10 μM solution of synthesized molecules was measured, and the results are summarized in Table 1 and Table 2. Mesalazine (2), a commercially available medication for the treatment of IBD, and mollugin were chosen as assay positive controls.
HT-29 human colonic epithelial cells and U937 human pre-monocytic cells were grown in RPMI 1640 medium supplemented with 10% FBS, 100 IU/mL penicillin, and 100 µg/mL streptomycin in a humidified incubator under 5% CO2/95% air.
U937 monocytic cell adhesion to colonic epithelial cells was evaluated using human U937 pre-monocytic cells, which were prelabeled with 2′,7′-bis(2-carboxyethyl)-5(6)-carboxyfluorescein acetoxymethyl ester (BCECF/AM, 10 μg/mL) for 1 h at 37 °C. HT-29 cells cultured in 24-well plates were pretreated with test compound, 5-ASA, or tofacitinib for 1 h prior to incubation with TNF-α (10 ng/mL) and IL-6 (5 ng/mL) for an additional 3 h. Cells were then co-incubated with BCECF/AM-prelabeled U937 cells (1 × 10^6 cells/well) for 30 min at 37 °C. Non-adhering U937 cells were removed, and the HT-29 cells and adherent U937 cells were washed twice with PBS. Images were captured and processed with a Nikon ECLIPSE TE2000-U microscope and NIS-Elements F software (Nikon, Tokyo, Japan). For quantitative analysis, other sets of cells were lysed in 0.1% Triton X-100 in Tris (0.1 M), and the fluorescence was measured using a fluorescence-detecting microplate reader (Promega , Madison, WI, USA) at […]. Experiments were performed in triplicate and repeated at least three times independently.

[3] = Plasma stability, human plasma; format: in vitro ADME; conditions: 37 °C, 1 μM
Experimental: (§3) The plasma stability assay was performed by incubation of human or rat plasma with a test compound in a final concentration of 1 μM for 120 min at 37 °C. The incubation was terminated by addition of 40 μL of ice-cold acetonitrile and vortexing for 5 min. The precipitated proteins were removed by centrifugation at 14,000× g for 5 min at 4 °C. Aliquots of the supernatant were injected onto a Shimadzu Nexera XR LC system. Percentages of the parent compound remaining were calculated by comparing peak areas using the Xcalibur software (version 1.6.1, Waltham, MA, USA).

[4] = Plasma stability, rat plasma; format: in vitro ADME; conditions: 2 h, 37 °C, 1 μM
Experimental: as §3

[5] = Metabolic stability, dog liver microsomes; format: in vitro ADME; conditions: 30 min, 1 μM
Experimental: as §2

T1 sequence (P33261 whole entry): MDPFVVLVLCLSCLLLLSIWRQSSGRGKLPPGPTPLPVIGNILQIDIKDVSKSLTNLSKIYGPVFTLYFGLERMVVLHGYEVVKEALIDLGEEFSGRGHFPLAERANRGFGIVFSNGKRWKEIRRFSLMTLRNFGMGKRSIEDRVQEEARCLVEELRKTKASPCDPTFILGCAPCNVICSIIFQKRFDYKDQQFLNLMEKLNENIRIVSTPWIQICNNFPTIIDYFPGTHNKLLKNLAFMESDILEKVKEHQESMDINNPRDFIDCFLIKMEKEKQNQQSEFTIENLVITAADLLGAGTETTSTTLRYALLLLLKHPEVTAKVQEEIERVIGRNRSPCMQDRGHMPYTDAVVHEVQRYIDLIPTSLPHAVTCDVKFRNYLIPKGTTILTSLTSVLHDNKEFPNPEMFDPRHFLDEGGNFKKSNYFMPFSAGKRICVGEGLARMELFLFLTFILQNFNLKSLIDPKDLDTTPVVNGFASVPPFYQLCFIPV

CC1(C)C=Cc2c(C(=O)OCCN3CCOCC3)c(O)c3ccccc3c2O1 [6d, 2-Morpholinoethyl 6-hydroxy-2,2-dimethyl-2H-benzo[h]chromene-5-carboxylate]
CYP Inhibition (% of Control) 2C19 (CYP2C19): 68 % of Control
serum SAA level (mSS assay) (Serum Amyloid A (SAA)): 295.77 ng/mL
effect on serum SAA level (Serum Amyloid A (SAA)): reduces serum SAA level
Metabolic Stability (% Remain, 30 min) Rat [1]: 20 % Remain
CYP Inhibition (% of Control) 3A4 (CYP3A4): 91 % of Control
inhibition at 10 µM [2]: 26.5 ± 5%
Plasma Stability (% Remain, 2 h) Human [3]: 97 % Remain
Plasma Stability (% Remain, 2 h) Rat [4]: 97 % Remain
Metabolic Stability (% Remain, 30 min) Dog [5]: 45 % Remain

CC1(C)C=Cc2c(C(=O)OCCN3CCOCC3)c(O)c3cc(C(F)(F)F)ccc3c2O1 [15c, 2-Morpholinoethyl 6-hydroxy-2,2-dimethyl-8-(trifluoromethyl)-2H-benzo[h]chromene-5-carboxylate]
CYP Inhibition (% of Control) 2C19 (CYP2C19): 93 % of Control
inhibition at 15 min, 10 μM (CYP2C19; human, liver microsomes, pH 7.4, probe S-mephenytoin (4-hydroxylation), at 10 μM drug concentration, read-out: % inhibition of CYP 2C19): < 50%
serum SAA level (mSS assay) (Serum Amyloid A (SAA)): 300.95 ng/mL
effect on serum SAA level (Serum Amyloid A (SAA)): reduces serum SAA level
Metabolic Stability (% Remain, 30 min) Rat [1]: 52 % Remain
CYP Inhibition (% of Control) 3A4 (CYP3A4): 90 % of Control
inhibition at 15 min, 10 μM (CYP3A4; human, liver microsomes, pH 7.4, probe midazolam (1′-hydroxylation), at 10 μM drug concentration, read-out: % inhibition of CYP 3A4): < 50%
inhibition at 10 µM [2]: 50.3 ± 5.7%
Plasma Stability (% Remain, 2 h) Human [3]: 100 % Remain
Plasma Stability (% Remain, 2 h) Rat [4]: 51 % Remain
Metabolic Stability (% Remain, 30 min) Dog [5]: 86 % Remain
